In brackets after ≈: the same amount, converted by molar mass. Several values for one entry are separate records, joined by “and”; a condition that tells them apart may be missing. Equal entries are not always repeated. Where two headings read alike, the source gives them in different places.
Experiments:
[1] = tested on: Plasmodium falciparum chloroquine-susceptible strain D6; test: In vitro antimalarial drug susceptibility assay (radiolabeled hypoxanthine incorporation), strain D6; type: cell-based; conditions: for Strain D6 IC50: growth inhibition, chloroquine-susceptible strain D6, 66 h incubation; for IC50: Plasmodium falciparum, D6, 66 h, read-out: Strain D6 IC50, growth inhibition, chloroquine-susceptible strain D6, 66 h incubation
[2] = tested on: Plasmodium falciparum chloroquine-resistant strain W2; test: microbe, parasite or virus in culture; type: cell-based; conditions: for Strain W2 IC50: growth inhibition, chloroquine-resistant strain W2, 66 h incubation; for IC50: Plasmodium falciparum, W2, 66 h, read-out: Strain W2 IC50, growth inhibition, chloroquine-resistant strain W2, 66 h incubation
[3] = tested on: D6 and W2 P. falciparum clones; type: cell-based, Plasmodium falciparum; conditions: IC50 (W2)/IC50 (D6) ratio
[4] = tested on: Mycobacterium tuberculosis H37Rv (ATCC 27294); test: Primary screen, Microplate Alamar Blue Assay (MABA), percent inhibition; type: cell-based; conditions: primary screening at 6.25 μg/ml; for inhibition at 6.25 µg/mL: Mycobacterium tuberculosis
Procedure: (§1) The activity of the compounds of the present invention against Mycobacterium tuberculosis was determined using the following assays conducted by the National Institute of Allergy and Infectious Diseases (NIAID) supports a TB drug acquisition and screening program, the TAACF.
To determine the percent inhibition the following assay was conducted. Primary screening was conducted at 6.25 μg/ml (or the molar equivalent of highest molecular weight compound in a given series of congeners) against Mycobacterium tuberculosis H37Rv (ATCC 27294) in BACTEC 12B medium using the Microplate Alamar Blue Assay (MABA). See Collins, L. and S. G. Franzblau. 1997. Microplate alamar blue assay versus BACTEC 460 system for high-throughput screening of compounds against Mycobacterium tuberculosis and Mycobacterium avium. Antimicrob Agents Chemother 41:1004-9, which is herein incorporated by reference.
Minimum compound requirements: 1.0 mg.

M. tuberculosis H37Rv = test: Minimum inhibitory concentration (MIC) in the MABA; type: cell-based, Mycobacterium tuberculosis
Procedure: as §1
2. Minimum Inhibitory Concentration (MIC)
The MIC is defined as the lowest concentration effecting a reduction in fluorescence of 90% relative to controls. Minimum compound requirements: 1.0 mg.

[5] = Table 3, H37Rv, read-out: Inhibition (%)
[6] = Table 5, Alamar assay, read-out: % Inhib
[7] = Mycobacterium tuberculosis, H37RV, Table 3, H37Rv, read-out: MIC
[8] = Mycobacterium tuberculosis, H37RV, Table 5, Alamar assay, M. tuberculosis H37Rv, read-out: MIC
[9] = Table 5, Alamar assay, M. tuberculosis H37Rv

SMILES	Strain D6 IC50 [1] [µg/mL]	Strain W2 IC50 [2] [µg/mL]	Resistance Index [3]	inhibition at 6.25 µg/mL [4, 5] [%]	inhibition at 6.25 µg/mL [4, 6] [%]	MIC (M. tuberculosis H37Rv; [7])	MIC (M. tuberculosis H37Rv; [8]) [µg/mL]	Inhibition (%) ([4]; Table 3, H37Rv)	% Inhib ([4]; Table 5, Alamar assay) [%]	MIC (M. tuberculosis H37Rv; Table 3, H37Rv) [µg/mL]	MIC (M. tuberculosis H37Rv; [9]) [µg/mL]	IC50 [1] [µg/mL]	IC50 [2] [µg/mL]
CCNC(=O)CCC(C)[C@H]1CCC2C3C(C[C@H](OC(C)=O)[C@@]21C)[C@@]1(C)CCC2(C[C@H]1C[C@H]3OC(C)=O)OOC1(CCC(c3ccccc3)CC1)OO2 (single isomer, unassigned) [Compound 1C47, N-Ethyl-7α,12α-Diacetoxy-5β-cholan-24-amide-3-spiro-6′-(1′,2′,4′, 5′-tetraoxacyclohexane)-3′-spiro-1″-((4″R or S)-phenyl)cyclohexane]	0.00541	0.00587	1.08	50	50	> 6.25 µg/mL	> 6.25	–	–	–	–	–	–
CCCNC(=O)CCC(C)[C@H]1CCC2C3C(C[C@H](OC(C)=O)[C@@]21C)[C@@]1(C)CCC2(C[C@H]1C[C@H]3OC(C)=O)OOC1(CCC(c3ccccc3)CC1)OO2 (single isomer, unassigned) [Compound 1C48, N-(n-Propyl)-7α,12α-Diacetoxy-5β-cholan-24-amide-3-spiro-6′-(1′,2′,4′,5′-tetraoxacyclohexane)-3′-spiro-1″-((4″R or S)-phenyl)cyclohexane]	0.00659	0.00672	1.02	46	46	> 6.25 µg/mL	> 6.25	–	–	–	–	–	–
CC(=O)O[C@H]1CC2C(C3CC[C@H](C(C)CCC(=O)O)[C@]31C)[C@H](OC(C)=O)C[C@@H]1CC3(CC[C@]21C)OOC1(CCC(c2ccccc2)CC1)OO3 (single isomer, unassigned) [Compound 1C49, 7α,12α-Diacetoxy-5β-cholan-24-oic acid-3-spiro-6′-(1′,2′,4′,5′-tetraoxacyclohexane)-3′-spiro-1″-((4″S or R)-phenyl)cyclohexane]	0.05424	0.04385	0.81	–	–	–	–	89	89	>6.25	>6.25	–	–
CC(=O)O[C@H]1CC2C(C3CC[C@H](C(C)CCC(N)=O)[C@]31C)[C@H](OC(C)=O)C[C@@H]1CC3(CC[C@]21C)OOC1(CCC(c2ccccc2)CC1)OO3 (single isomer, unassigned) [Compound 1C50, 7α,12α-Diacetoxy-5β-cholan-24-amide-3-spiro-6′-(1′,2′,4′,5′-tetraoxacyclohexane)-3′-spiro-1″-((4″S or R)-phenyl)cyclohexane]	0.04049	0.03746	0.92	–	–	–	–	87	87	6.25 (≈ 8.98 µM)	>6.25	–	–
CNC(=O)CCC(C)[C@H]1CCC2C3C(C[C@H](OC(C)=O)[C@@]21C)[C@@]1(C)CCC2(C[C@H]1C[C@H]3OC(C)=O)OOC1(CCC(c3ccccc3)CC1)OO2 (single isomer, unassigned) [Compound 1C51, N-Methyl-7α,12α-Diacetoxy-5β-cholan-24-amide-3-spiro-6′-(1′,2′,4′,5′-tetraoxacyclohexane)-3′-spiro-1″-((4″S or R)-phenyl)cyclohexane]	0.06462	0.05472	0.85	–	–	–	–	61	61	>6.25	>6.25	–	–
CCNC(=O)CCC(C)[C@H]1CCC2C3C(C[C@H](OC(C)=O)[C@@]21C)[C@@]1(C)CCC2(C[C@H]1C[C@H]3OC(C)=O)OOC1(CCC(c3ccccc3)CC1)OO2 (single isomer, unassigned) [Compound 1C52, N-Ethyl-7α,12α-Diacetoxy-5β-cholan-24-amide-3-spiro-6′-(1′,2′,4′,5′-tetraoxacyclohexane)-3′-spiro-1″-((4″S or R)-phenyl)cyclohexane]	0.03279	0.03258	0.99	–	–	–	–	62	62	>6.25	>6.25	–	–
CCCNC(=O)CCC(C)[C@H]1CCC2C3C(C[C@H](OC(C)=O)[C@@]21C)[C@@]1(C)CCC2(C[C@H]1C[C@H]3OC(C)=O)OOC1(CCC(c3ccccc3)CC1)OO2 (single isomer, unassigned) [Compound 1C53, N-(n-Propyl)-7α,12α-Diacetoxy-5β-cholan-24-amide-3-spiro-6′-(1′,2′,4′,5′-tetraoxacyclohexane)-3′-spiro-1″-((4″S or R)-phenyl)cyclohexane]	0.02428	0.02454	1.01	–	–	–	–	59	59	>6.25	>6.25	–	–
COC(=O)CCC(C)[C@H]1CCC2C3C(C[C@H](OC(C)=O)[C@@]21C)[C@@]1(C)CCC2(C[C@H]1C[C@H]3OC(C)=O)OOC1(CCCC1)OO2 (stereo partly drawn) [8a/1B04, Methyl 7α,12α-Diacetoxy-5β-cholan-24-oate-3-spiro-6′-(1′,2′,4′,5′-tetraoxacyclohexane)-3′-spirocyclopentane]	–	–	0.71	–	0	–	> 6.25	–	–	–	–	0.0243 (≈ 0.0391 µM)	0.0172 (≈ 0.0277 µM)
COC(=O)CCC(C)[C@H]1CCC2C3C(C[C@H](OC(C)=O)[C@@]21C)[C@@]1(C)CCC2(C[C@H]1C[C@H]3OC(C)=O)OOC1(CCCCC1)OO2 (stereo partly drawn) [8b/1B05, Methyl 7α,12α-Diacetoxy-5β-cholan-24-oate-3-spiro-6′-(1′,2′,4′,5′-tetraoxacyclohexane)-3′-spirocyclohexane]	–	–	0.79	–	0	–	> 6.25	–	–	–	–	0.0136 (≈ 0.0215 µM)	0.0108 (≈ 0.017 µM)
COC(=O)CCC(C)[C@H]1CCC2C3C(C[C@H](OC(C)=O)[C@@]21C)[C@@]1(C)CCC2(C[C@H]1C[C@H]3OC(C)=O)OOC1(CC(C)CCC1C(C)C)OO2 (stereo partly drawn) [8f/1B10, Methyl 7α,12α-diacetoxy-5β-cholan-24-oate-3-spiro-6′-(1′,2′,4′,5′-tetraoxacyclohexane)-3′-spiro-1″-(−)-menthane]	–	–	0.47	–	0	–	> 6.25	–	–	–	–	0.107 (≈ 0.154 µM)	0.0506 (≈ 0.0732 µM)
CC(=O)O[C@H]1CC2C(C3CC[C@H](C(C)CCC(=O)O)[C@]31C)[C@H](OC(C)=O)C[C@@H]1CC3(CC[C@]21C)OOC1(CCCCC1)OO3 (stereo partly drawn) [9b/1C15, 70α,12α-Diacetoxy-5β-cholan-24-oic acid-3-spiro-6′-(1′,2′,4′,5′-tetraoxacyclohexane)-3′-spirocyclohexane]	–	–	0.63	–	33	–	> 6.25	–	–	–	–	0.019 (≈ 0.0306 µM)	0.0119 (≈ 0.0192 µM)
CC(=O)O[C@H]1CC2C(C3CC[C@H](C(C)CCC(=O)O)[C@]31C)[C@H](OC(C)=O)C[C@@H]1CC3(CC[C@]21C)OOC1(CCCCC1C)OO3 (stereo partly drawn) [9d/1C16, 7α,12α-Diacetoxy-5β-cholan-24-oic acid-3-spiro-6′-(1′,2′,4′,5′-tetraoxacyclohexane)-3′-spiro-1″-(2″-methyl)cyclohexane]	–	–	0.56	–	0	–	> 6.25	–	–	–	–	0.0429 (≈ 0.0676 µM)	0.0238 (≈ 0.0375 µM)
CC(=O)O[C@H]1CC2C(C3CC[C@H](C(C)CCC(=O)O)[C@]31C)[C@H](OC(C)=O)C[C@@H]1CC3(CC[C@]21C)OOC1(CCC(C)CC1)OO3 (stereo partly shown) [9g/1C17]	0.00097	0.00062	0.64	21	21	> 6.25 µg/mL and > 9.84 µM	> 6.25	–	–	–	–	–	–
CC(=O)O[C@H]1CC2C(C3CC[C@H](C(C)CCC(=O)O)[C@]31C)[C@H](OC(C)=O)C[C@@H]1CC3(CC[C@]21C)OOC1(CCC(C)CC1)OO3 (stereo partly shown) [9h/1C18]	0.01974	0.01126	0.57	–	–	–	–	–	34	–	>6.25	–	–
CCCNC(=O)CCC(C)[C@H]1CCC2C3C(C[C@H](OC(C)=O)[C@@]21C)[C@@]1(C)CCC2(C[C@H]1C[C@H]3OC(C)=O)OOC1(CCCCC1C)OO2 (stereo partly drawn) [16/1C25, N-(n-Propyl)-7α,12α-diacetoxy-5β-cholan-24-amide-3-spiro-6′-(1′,2′,4′,5′-tetraoxacyclohexane)-3′-spiro-1″-(2″-methyl)cyclohexane]	–	–	0.71	–	87	–	> 6.25	–	–	–	–	0.00889 (≈ 0.0132 µM)	0.00628 (≈ 0.00929 µM)

From patent US6906098B2, “Mixed steroidal 1,2,4,5-tetraoxane compounds and methods of making and using thereof” (priority 2002, dated 2005)
